Experiment [1] concerns the target Serine/threonine-protein kinase 26 (Homo sapiens) (UniProt Q9P289).
The target in experiment [2] is Dual specificity mitogen-activated protein kinase kinase 2 (Homo sapiens, UniProt P36507).
For experiment [3], the target named is T1, Serine/threonine-protein kinase VRK3 (Homo sapiens) (UniProt Q8IV63).
T1 sequence (whole entry): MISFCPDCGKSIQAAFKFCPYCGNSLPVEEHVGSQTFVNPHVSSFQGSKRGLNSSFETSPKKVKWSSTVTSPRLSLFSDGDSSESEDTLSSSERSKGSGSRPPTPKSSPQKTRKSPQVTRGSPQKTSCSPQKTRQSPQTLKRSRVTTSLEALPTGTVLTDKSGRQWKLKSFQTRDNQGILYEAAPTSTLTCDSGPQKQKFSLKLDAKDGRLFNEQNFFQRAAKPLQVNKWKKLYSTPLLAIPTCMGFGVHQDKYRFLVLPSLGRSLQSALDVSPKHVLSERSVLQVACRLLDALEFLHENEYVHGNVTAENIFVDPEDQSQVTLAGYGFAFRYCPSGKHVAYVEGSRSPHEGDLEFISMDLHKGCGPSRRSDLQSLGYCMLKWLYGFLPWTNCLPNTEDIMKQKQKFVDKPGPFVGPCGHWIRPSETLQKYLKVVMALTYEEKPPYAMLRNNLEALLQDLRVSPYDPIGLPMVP

The target of experiment [4] is Mitogen-activated protein kinase 3 (Homo sapiens, UniProt P27361).
The target in experiment [5] is T2, Dual specificity mitogen-activated protein kinase kinase 6 (Homo sapiens) (UniProt P52564).
T2 sequence (whole entry): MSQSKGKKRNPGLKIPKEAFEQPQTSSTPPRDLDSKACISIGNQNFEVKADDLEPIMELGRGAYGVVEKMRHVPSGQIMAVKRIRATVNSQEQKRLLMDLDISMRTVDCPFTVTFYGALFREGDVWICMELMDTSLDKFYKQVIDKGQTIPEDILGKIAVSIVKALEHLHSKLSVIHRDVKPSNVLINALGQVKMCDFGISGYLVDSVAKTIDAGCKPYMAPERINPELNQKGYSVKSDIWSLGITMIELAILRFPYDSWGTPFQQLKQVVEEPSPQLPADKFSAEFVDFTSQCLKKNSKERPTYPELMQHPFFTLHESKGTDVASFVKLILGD

In experiment [6] the target is Calcium/calmodulin-dependent protein kinase type 1G (Homo sapiens) (UniProt Q96NX5).
In experiment [7] the target is Serine/threonine-protein kinase 38 (Homo sapiens) (UniProt Q15208).
Experiment [8] has as its target Serine/threonine-protein kinase Nek6 (Homo sapiens) (UniProt Q9HC98).
Experiment [9] has as its target Calcium/calmodulin-dependent protein kinase type 1D (Homo sapiens) (UniProt Q8IU85).
Experiment [10] deals with Calcium/calmodulin-dependent protein kinase kinase 2 (Homo sapiens, UniProt Q96RR4).
The target of experiment [11] is Casein kinase I isoform gamma-3 (Homo sapiens) (UniProt Q9Y6M4).
The target of experiment [12] is T3, Lymphokine-activated killer T-cell-originated protein kinase (Homo sapiens) (UniProt Q96KB5).
T3 sequence (whole entry): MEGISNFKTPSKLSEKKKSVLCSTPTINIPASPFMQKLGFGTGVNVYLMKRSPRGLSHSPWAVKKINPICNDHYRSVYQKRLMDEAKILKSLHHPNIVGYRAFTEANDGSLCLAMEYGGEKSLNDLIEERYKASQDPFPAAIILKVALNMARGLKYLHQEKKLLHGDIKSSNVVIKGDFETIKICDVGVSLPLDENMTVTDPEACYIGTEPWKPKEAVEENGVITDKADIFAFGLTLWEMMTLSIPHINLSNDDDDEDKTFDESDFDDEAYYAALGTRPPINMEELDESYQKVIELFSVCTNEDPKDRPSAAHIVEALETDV

The target of experiment [13] is T4, Calcium/calmodulin-dependent protein kinase type IV (Homo sapiens) (UniProt Q16566).
T4 sequence (whole entry): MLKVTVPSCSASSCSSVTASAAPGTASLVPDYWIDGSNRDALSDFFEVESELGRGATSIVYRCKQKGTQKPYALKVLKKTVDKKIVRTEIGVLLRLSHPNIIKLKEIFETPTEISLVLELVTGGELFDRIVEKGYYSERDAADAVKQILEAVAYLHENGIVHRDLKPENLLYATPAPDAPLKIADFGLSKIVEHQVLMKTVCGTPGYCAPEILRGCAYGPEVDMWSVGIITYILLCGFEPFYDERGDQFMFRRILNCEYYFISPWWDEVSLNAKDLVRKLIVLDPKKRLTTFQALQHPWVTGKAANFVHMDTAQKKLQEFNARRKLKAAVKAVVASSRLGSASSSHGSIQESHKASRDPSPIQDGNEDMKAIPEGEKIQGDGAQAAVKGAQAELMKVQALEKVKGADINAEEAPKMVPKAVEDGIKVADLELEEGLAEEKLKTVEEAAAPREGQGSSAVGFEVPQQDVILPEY

Experiment [14] deals with Serine/threonine-protein kinase PLK1 (Homo sapiens) (UniProt P53350).
Experiment [15] deals with Ribosomal protein S6 kinase alpha-3 (Homo sapiens) (UniProt P51812).
Experiment [16] deals with Calcium/calmodulin-dependent protein kinase type II subunit delta (Homo sapiens) (UniProt Q13557).
In experiment [17] the target is Serine/threonine-protein kinase RIO2 (Homo sapiens) (UniProt Q9BVS4).
In experiment [18] the target is Cyclin-dependent kinase 16 (Homo sapiens) (UniProt Q00536).
For experiment [19], the target named is 5'-AMP-activated protein kinase catalytic subunit alpha-2 (Homo sapiens) (UniProt P54646).
Experiment [20] has as its target Serine/threonine-protein kinase 25 (Homo sapiens) (UniProt O00506).
Experiment [21] has as its target Death-associated protein kinase 3 (Homo sapiens) (UniProt O43293).

Chain of Dual specificity mitogen-activated protein kinase kinase 2 (P36507 whole entry): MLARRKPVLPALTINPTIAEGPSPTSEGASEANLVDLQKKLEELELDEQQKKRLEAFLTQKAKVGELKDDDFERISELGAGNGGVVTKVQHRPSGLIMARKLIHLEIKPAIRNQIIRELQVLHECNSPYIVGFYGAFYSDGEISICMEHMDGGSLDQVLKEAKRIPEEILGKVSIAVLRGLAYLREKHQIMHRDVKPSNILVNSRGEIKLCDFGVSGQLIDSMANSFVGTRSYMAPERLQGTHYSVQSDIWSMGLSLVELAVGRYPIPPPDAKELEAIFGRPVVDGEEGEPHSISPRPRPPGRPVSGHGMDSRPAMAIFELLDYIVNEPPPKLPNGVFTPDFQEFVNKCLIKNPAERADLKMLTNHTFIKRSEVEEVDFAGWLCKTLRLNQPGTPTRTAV
Chain of Calcium/calmodulin-dependent protein kinase type 1G (Homo sapiens) (Q96NX5 whole entry): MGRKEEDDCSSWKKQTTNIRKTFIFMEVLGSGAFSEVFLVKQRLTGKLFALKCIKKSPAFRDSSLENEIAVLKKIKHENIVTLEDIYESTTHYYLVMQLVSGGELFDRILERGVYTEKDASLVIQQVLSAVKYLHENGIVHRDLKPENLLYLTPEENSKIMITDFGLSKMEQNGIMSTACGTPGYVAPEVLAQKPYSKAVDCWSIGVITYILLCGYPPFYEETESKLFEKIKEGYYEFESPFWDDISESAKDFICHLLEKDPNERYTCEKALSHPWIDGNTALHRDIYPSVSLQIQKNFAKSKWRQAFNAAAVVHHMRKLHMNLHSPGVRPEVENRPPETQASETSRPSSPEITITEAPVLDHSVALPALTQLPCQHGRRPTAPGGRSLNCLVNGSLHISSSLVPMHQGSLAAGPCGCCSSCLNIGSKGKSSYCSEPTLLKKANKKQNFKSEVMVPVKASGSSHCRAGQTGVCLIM
Chain of Serine/threonine-protein kinase 38 (Homo sapiens) (Q15208 2-465 limits assumed): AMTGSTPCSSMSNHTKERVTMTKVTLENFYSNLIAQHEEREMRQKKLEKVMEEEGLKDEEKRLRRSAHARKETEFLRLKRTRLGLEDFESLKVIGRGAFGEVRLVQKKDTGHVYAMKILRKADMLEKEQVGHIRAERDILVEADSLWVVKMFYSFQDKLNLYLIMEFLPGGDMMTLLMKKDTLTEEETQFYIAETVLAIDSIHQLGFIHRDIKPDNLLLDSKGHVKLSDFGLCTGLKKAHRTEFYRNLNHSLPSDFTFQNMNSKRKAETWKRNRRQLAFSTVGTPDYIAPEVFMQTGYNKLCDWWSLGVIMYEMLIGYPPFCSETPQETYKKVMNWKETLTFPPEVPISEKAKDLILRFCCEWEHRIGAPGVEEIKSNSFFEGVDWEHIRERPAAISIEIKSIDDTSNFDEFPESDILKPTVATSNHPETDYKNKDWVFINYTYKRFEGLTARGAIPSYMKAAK
Chain of Serine/threonine-protein kinase PLK1 (Homo sapiens) (P53350 whole entry): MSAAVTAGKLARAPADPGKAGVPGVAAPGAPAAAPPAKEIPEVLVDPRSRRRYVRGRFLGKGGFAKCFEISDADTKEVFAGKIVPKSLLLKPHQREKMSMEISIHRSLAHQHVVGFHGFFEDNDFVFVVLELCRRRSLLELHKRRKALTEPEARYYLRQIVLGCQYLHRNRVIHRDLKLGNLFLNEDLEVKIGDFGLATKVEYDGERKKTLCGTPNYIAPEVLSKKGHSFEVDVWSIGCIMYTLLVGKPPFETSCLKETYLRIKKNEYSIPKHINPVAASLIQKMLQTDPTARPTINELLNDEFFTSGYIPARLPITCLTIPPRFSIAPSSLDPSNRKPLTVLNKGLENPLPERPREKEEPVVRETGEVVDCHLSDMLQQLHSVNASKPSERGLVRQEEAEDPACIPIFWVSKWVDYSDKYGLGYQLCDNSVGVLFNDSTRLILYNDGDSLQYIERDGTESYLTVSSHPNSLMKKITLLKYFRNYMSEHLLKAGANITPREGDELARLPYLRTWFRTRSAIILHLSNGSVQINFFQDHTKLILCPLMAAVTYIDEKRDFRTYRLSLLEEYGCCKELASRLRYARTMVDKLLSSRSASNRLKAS
Chain of 5'-AMP-activated protein kinase catalytic subunit alpha-2 (Homo sapiens) (P54646 whole entry, looked up): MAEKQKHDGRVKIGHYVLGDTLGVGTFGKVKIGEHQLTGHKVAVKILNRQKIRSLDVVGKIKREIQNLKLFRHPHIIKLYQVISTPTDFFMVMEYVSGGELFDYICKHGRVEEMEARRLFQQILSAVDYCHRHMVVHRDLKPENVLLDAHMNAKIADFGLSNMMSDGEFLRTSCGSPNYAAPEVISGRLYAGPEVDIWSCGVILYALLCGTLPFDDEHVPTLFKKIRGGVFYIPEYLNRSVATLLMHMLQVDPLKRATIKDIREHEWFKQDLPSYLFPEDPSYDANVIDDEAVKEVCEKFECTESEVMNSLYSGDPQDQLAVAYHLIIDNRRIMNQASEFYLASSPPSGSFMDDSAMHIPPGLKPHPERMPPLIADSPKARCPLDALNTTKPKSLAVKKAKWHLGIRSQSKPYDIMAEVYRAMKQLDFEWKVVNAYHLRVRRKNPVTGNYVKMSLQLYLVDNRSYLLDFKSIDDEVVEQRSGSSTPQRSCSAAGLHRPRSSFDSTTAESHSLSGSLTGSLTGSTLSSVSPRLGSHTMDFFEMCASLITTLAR
Chain of Serine/threonine-protein kinase Nek6 (Homo sapiens) (Q9HC98 whole entry): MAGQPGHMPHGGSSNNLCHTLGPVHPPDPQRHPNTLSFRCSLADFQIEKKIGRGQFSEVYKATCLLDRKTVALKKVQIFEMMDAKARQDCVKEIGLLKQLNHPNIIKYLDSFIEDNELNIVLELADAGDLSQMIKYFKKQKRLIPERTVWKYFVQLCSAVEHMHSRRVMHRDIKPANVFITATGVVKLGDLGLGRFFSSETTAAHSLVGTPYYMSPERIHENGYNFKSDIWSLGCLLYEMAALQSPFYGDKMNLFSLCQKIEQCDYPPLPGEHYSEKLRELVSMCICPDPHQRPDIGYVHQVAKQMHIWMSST
Chain of Calcium/calmodulin-dependent protein kinase type II subunit delta (Homo sapiens) (Q13557 whole entry): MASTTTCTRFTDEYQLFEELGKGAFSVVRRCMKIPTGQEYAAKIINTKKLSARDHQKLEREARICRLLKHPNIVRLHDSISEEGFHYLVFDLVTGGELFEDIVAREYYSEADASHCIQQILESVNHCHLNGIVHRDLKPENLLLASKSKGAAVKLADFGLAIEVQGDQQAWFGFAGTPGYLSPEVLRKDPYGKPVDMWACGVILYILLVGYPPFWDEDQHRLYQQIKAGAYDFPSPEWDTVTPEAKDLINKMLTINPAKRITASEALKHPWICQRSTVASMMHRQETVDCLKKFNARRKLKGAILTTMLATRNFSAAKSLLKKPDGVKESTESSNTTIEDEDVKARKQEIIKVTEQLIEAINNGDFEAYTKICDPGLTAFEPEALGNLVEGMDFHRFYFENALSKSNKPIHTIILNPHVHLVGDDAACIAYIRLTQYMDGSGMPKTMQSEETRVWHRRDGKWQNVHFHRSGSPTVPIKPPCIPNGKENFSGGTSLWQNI
Chain of Death-associated protein kinase 3 (Homo sapiens) (O43293 whole entry, looked up): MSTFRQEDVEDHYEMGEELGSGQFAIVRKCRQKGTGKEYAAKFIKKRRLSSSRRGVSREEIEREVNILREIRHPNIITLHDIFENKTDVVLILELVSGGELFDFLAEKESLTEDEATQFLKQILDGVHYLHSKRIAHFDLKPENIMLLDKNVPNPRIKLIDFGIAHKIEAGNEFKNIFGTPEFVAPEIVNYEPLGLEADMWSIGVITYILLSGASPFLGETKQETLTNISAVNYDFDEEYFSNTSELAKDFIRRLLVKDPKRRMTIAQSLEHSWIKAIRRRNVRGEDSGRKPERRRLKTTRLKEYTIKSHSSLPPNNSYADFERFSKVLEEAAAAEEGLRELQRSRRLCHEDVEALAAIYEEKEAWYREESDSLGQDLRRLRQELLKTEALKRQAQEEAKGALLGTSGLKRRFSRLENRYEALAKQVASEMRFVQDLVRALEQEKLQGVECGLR
Chain of Serine/threonine-protein kinase 26 (Homo sapiens) (Q9P289 2-416 limits assumed): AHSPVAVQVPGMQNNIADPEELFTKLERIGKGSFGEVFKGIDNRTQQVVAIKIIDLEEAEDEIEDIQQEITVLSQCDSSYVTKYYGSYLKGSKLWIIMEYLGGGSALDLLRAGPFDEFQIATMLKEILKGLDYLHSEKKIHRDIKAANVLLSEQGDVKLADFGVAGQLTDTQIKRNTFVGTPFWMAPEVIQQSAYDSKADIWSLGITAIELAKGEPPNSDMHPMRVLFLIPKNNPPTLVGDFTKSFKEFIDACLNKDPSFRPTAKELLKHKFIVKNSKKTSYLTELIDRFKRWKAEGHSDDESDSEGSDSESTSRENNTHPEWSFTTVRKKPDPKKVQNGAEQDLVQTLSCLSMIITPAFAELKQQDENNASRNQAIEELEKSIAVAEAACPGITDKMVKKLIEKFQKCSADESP
Chain of Cyclin-dependent kinase 16 (Homo sapiens) (Q00536 whole entry): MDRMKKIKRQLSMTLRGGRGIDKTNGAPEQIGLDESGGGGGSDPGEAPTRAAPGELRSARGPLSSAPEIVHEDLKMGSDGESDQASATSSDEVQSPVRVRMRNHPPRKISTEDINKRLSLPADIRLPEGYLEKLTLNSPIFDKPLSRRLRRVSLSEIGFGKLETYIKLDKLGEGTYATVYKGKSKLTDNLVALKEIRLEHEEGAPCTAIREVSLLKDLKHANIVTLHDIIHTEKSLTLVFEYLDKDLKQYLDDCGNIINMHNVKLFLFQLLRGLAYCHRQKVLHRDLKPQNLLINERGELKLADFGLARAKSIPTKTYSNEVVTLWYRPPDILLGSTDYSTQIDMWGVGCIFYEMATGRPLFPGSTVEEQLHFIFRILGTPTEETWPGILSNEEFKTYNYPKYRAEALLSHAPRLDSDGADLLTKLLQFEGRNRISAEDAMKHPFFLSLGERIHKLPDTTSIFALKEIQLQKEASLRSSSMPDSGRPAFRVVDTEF

The term ΔTm denotes the shift of the melting midpoint relative to a reference. Consider `CC(C)(C)n1nc(-c2cccc3ccccc23)c2c(N)ncnc21`, for which the ΔTm was 1.1 °C in experiment [1]; 3.2 °C in [2]; 0.2 °C in experiment [3]; 0.8 °C in experiment [4]; 3.5 °C in experiment [5]; -0.3 °C in experiment [6]. Moreover, the ΔTm in experiment [7] is 0.4 °C; in experiment [8] it was 0.1 °C; in experiment [9], -0.3 °C; in experiment [10], 0.7 °C; in experiment [11] it was 0.5 °C; in [12], 0.5 °C. For the same compound, the ΔTm in experiment [13] was -0.1 °C; in [14], 0 °C; in [15], 2.4 °C; in [16] it was -0.1 °C; in experiment [17], 0.4 °C; in experiment [18] it was -0.4 °C. Further, the ΔTm was 0 °C in experiment [19], 1.3 °C in [20] and -0.8 °C in experiment [21].

With `Cc1cc(C=C2C(=O)C=CC2=O)cc(C)c1O`, the ΔTm in experiment [1] was -0.1 °C; in experiment [2], -2 °C; in [3], -0.3 °C; in [4], 0.6 °C; in experiment [5], 7.9 °C; in [6], -0.4 °C. Besides, the ΔTm in experiment [7] was 0.2 °C; in experiment [8] it was -0.4 °C; in experiment [9], -1 °C; in experiment [10] it was -1.4 °C; in experiment [11] it was -0.1 °C; in experiment [12] it was 0.2 °C. Further, the ΔTm in [13] is -0.1 °C; in [14], 0.6 °C; in experiment [15], 1.8 °C; in experiment [16], 1.1 °C; in experiment [17], 0.7 °C; in experiment [18], 2.2 °C. Further, the ΔTm in [19] was -2.2 °C; in experiment [20], 0.4 °C; in experiment [21], 0.6 °C.

`COc1ccc2c(c1)/C(=C/c1cnc[nH]1)C(=O)N2` [SU-9516]: the ΔTm amounted to 2 °C in [1]; 1.7 °C in experiment [2]; 0.3 °C in experiment [3]; 2.6 °C in [4]; 5.1 °C in experiment [5]; 0.4 °C in experiment [6]. The ΔTm in [7] is 3.4 °C; in experiment [8], 0.1 °C; in experiment [9], 0.5 °C; in experiment [10], 2.8 °C; in experiment [11], 0.5 °C; in [12], 0 °C. The ΔTm is 1.5 °C in experiment [13]; 0.7 °C in [14]; -0.5 °C in experiment [16]; 1.3 °C in experiment [17]; 3.3 °C in [18]; 4.1 °C in experiment [19]. In addition, the results for the ΔTm in experiment [20] and in experiment [21] were 6.4 °C and 2.7 °C, respectively.

Regarding `CC[C@H](CO)Nc1nc(NCc2ccccc2)c2ncn(C(C)C)c2n1` [SELICICLIB], the ΔTm amounted to 0.3 °C in [1]; 0.6 °C in experiment [3]; 0.4 °C in experiment [4]; 0.2 °C in [5]; 0 °C in experiment [6]; 0.3 °C in experiment [7]. In addition, the ΔTm turned out to be 0 °C in experiment [9]; 0.3 °C in experiment [10]; 0.8 °C in experiment [12]; 0.2 °C in experiment [13]; 1 °C in experiment [14]; 1.1 °C in [15]. The ΔTm in experiment [16] is 0.1 °C; in experiment [17], 0 °C; in experiment [19] it was 0.4 °C; in [20] it was 0.3 °C.

For `NC(=O)c1ccc2[nH]c(-c3ccc(Oc4ccc(Cl)cc4)cc3)nc2c1`, the ΔTm is 1.3 °C in experiment [1]; -1.2 °C in experiment [2]; 1.2 °C in experiment [3]; -0.2 °C in [4]; 0.4 °C in [5]; 2.6 °C in experiment [6]. In addition, the ΔTm amounted to 1.7 °C in experiment [7]; 0.4 °C in experiment [8]; 1.1 °C in experiment [9]; 2.4 °C in experiment [10]; 1.3 °C in experiment [11]; 0.9 °C in experiment [12]. The ΔTm is -0.4 °C in [13]; 4.4 °C in [14]; 0.7 °C in [15]; 1.5 °C in [16]; 2.4 °C in [17]; -1.4 °C in experiment [18]. For the same compound, the ΔTm was -0.9 °C in experiment [19] and 1.2 °C in experiment [21].

With `O=C1NC(=O)C(c2cn(CCCn3ccnc3)c3ccccc23)=C1Nc1ccccc1`, the ΔTm in experiment [1] was 3.1 °C; in experiment [2], 0.4 °C; in experiment [3] it was 1.6 °C; in experiment [4] it was -0.1 °C; in experiment [5] it was 0.9 °C; in experiment [6] it was 1 °C. Further, the thermal shift (ΔTm) in experiment [7] was 0.7 °C; in experiment [8], -0.1 °C; in [9], 0.2 °C; in experiment [10], 3.8 °C; in experiment [11] it was 0.5 °C; in [12], 0.8 °C. In addition, the shift in melting temperature (ΔTm) in experiment [13] is -0.7 °C; in experiment [14], 1.2 °C; in experiment [15], 0.5 °C; in experiment [16] it was 0.1 °C; in experiment [17] it was 6.1 °C; in experiment [18], 0.6 °C. In addition, the ΔTm in experiment [19] turned out to be 0.4 °C; in experiment [21] it was 1.3 °C.

For `O=C1Cc2c([nH]c3ccc(Br)cc23)-c2ccccc2N1` [KENPAULLONE], the ΔTm in experiment [1] is 1.5 °C; in experiment [2], -0.3 °C; in experiment [3], -0.2 °C; in experiment [4] it was 0.5 °C; in experiment [5] it was 0.4 °C; in experiment [6], 0.3 °C. Moreover, the ΔTm in experiment [7] is 1.1 °C; in experiment [8], 0.4 °C; in experiment [9], 1 °C; in experiment [10], 2 °C; in [11], 0.4 °C; in experiment [12], -2 °C. Besides, the thermal shift (ΔTm) in experiment [13] turned out to be 0.3 °C; in [14], 0.1 °C; in experiment [16], 0.2 °C; in experiment [17] it was 1.8 °C; in experiment [18] it was 2 °C; in experiment [19], 1.1 °C. Also, the ΔTm amounted to 2.7 °C in [20] and 0.4 °C in [21].

For the origin of these results see ChEMBL document CHEMBL1145498, “A systematic interaction map of validated kinase inhibitors with Ser/Thr kinases” (Proc Natl Acad Sci U S A, 2007).
